In PMC8546167, “Osh6 Revisited: Control of PS Transport by the Concerted Actions of PI4P and Sac1 Phosphatase” (Frontiers in Molecular Biosciences, 2021):

Molecular target: T1, Osh6 (Saccharomyces cerevisiae, UniProt Q02201)
T1 construct: recombinant in E. coli BL21 Star; N-terminal His6-GB1 tag cleaved by TEV
T1 sequence (Q02201 1-448): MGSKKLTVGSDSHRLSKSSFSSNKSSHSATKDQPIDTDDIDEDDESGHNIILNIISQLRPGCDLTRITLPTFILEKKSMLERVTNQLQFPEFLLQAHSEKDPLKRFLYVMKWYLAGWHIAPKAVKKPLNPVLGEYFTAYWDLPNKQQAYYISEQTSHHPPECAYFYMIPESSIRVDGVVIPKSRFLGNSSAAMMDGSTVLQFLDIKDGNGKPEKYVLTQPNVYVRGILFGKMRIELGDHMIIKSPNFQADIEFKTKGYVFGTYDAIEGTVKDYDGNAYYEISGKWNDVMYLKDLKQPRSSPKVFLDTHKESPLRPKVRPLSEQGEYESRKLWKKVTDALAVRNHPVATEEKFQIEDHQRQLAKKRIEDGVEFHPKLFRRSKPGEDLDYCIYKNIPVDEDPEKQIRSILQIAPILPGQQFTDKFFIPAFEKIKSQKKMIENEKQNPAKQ
Test: FRET transport between LUVs, C2Lact-CFP biosensor and ATTO488-DOPE
Type: biochemical
Conditions: 100 nM Osh6; 5 mol% POPS donor LUVs to POPC acceptor LUVs

## CCCCCCCC/C=C\CCCCCCCC(=O)O[C@H](COC(=O)CCCCCCCCCCCCCCC)COP(=O)(O)OC[C@H](N)C(=O)O [PS, POPS]
  FRET transport between LUVs, C2Lact-CFP biosensor and ATTO488-DOPE: Osh6 molecules pick up PS molecules from any membrane of high PS content
